# Experiments:
# Assay type in all cases: cell-based
# Settings in all cases: COS-7 cells
# human KDELR1 N54K = target: T1, human KDELR1 N54K (Homo sapiens, UniProt P24390, N54K); assay: ER retrieval assay, KDELR1 N54K-GFP
# T1 construct: expressed in transfected cells; host or cells: COS-7
# Excerpt: (§1) To create KDELR1-GFP and KDELR2-GFP, the reading frames for Homo sapiens KDELR1 (Uniprot: P24390) and KDELR2 (Uniprot: P33947) were cloned into the pEF5/FRT low level mammalian expression vector with a C-terminal 20 amino acid linker made up of 5 copies of Gly-Ser-Ser-Ser followed by GFP. Specific point mutations were introduced using the Quickchange protocol (Stratagene) and are described in the key resources table and figures. To create the mScarlet-KDEL^sec ligand construct, mScarlet with an N-terminal hGH signal peptide and the 16 C-terminal residues of human BiP at its C-terminus, containing the KDEL signal, was cloned into the pcDNA3.1 vector. […] The Golgi marker protein TGN46 was detected by antibody (sheep anti-TGN46 AHP500G; AbD Serotec) and an Alexa 647 conjugated secondary anti-sheep secondary (A-21448, Invitrogen). In Figure 1d and e, endogenous KDELR was detected by antibody (mouse anti-KDELR ADI-VAA-PT048; Enzo Life Sciences) and Alexa 488 conjugated anti-mouse secondary antibody (A-21202, Invitrogen). For retrieval assays in other figures, KDELR-GFP fusion proteins were directly detected by fluorescence. The mScarlet-xDEL fusion proteins were directly detected by fluorescence. […] The fraction of KDEL receptor in the Golgi apparatus was calculated by dividing the Golgi signal by the total cell signal. […]
# human KDELR1 D50N/N54K = target: T2, human KDELR1 D50N/N54K (Homo sapiens, UniProt P24390, D50N/N54K); assay: ER retrieval assay, KDELR1 D50N/N54K-GFP
# T2 construct: expressed in transfected cells; host or cells: COS-7
# T2 sequence (P24390 whole entry D50N/N54K): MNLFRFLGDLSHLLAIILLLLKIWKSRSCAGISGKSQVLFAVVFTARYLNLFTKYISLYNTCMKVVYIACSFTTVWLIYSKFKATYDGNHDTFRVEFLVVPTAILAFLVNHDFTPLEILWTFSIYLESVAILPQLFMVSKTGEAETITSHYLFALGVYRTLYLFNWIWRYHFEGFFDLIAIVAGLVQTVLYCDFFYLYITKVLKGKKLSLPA
# Excerpt: as §1
# human KDELR1 D50N/E117Q = target: T3, human KDELR1 D50N/E117Q (Homo sapiens, UniProt P24390, D50N/E117Q); assay: ER retrieval assay, KDELR1 D50N/E117Q-GFP
# T3 construct: expressed in transfected cells; host or cells: COS-7
# T3 sequence (P24390 whole entry D50N/E117Q): as the sequence (P24390 whole entry D50N/N54K) above, with K54N, E117Q counted along it
# Excerpt: as §1
# [1] = target: T4, human KDELR1 D50N/N54K/E117Q/W120A (Homo sapiens, UniProt P24390, D50N/E117Q/N54K/W120A); assay: ER retrieval assay, KDELR1 D50N/N54K/E117Q/W120A-GFP
# T4 construct: expressed in transfected cells; host or cells: COS-7
# T4 sequence (P24390 whole entry D50N/N54K/E117Q/W120A): as the sequence (P24390 whole entry D50N/N54K) above, with E117Q, W120A counted along it
# Excerpt: as §1
# T1 sequence (P24390 whole entry N54K): as the sequence (P24390 whole entry D50N/N54K) above, with N50D counted along it
substance,measurement,setting,value
"ADEL [pcDNA3.1 hGHss-mScarlet-H. sapiens BiP639-654K651A (ADEL^SEC), secreted mScarlet fusion with human BiP C-terminus, ADEL signal]",ligand-induced receptor retrieval to the ER (in words),human KDELR1 N54K,did not result in ADEL or DDEL recognition
same,ligand-induced receptor retrieval to the ER (in words),human KDELR1 D50N/N54K,gave a response
same,ligand-induced receptor retrieval to the ER (in words),human KDELR1 D50N/E117Q,switched specificity towards ADEL and DDEL
same,ligand-induced receptor retrieval to the ER (in words),[1],does not relocate from the Golgi to the ER

# Reference: paper PMC8248988, “A signal capture and proofreading mechanism for the KDEL-receptor explains selectivity and dynamic range in ER retrieval” (eLife, 2021)
